From patent publication US11123340B2, “Small-molecule UT-A-selective urea transport inhibitors” (The Regents of the University of California, priority 2014, dated 2021)
“And” between values parts separate entries of the source, which are not always exact repeats. Identical values can stand only once.

Columns and labels:
PIM-1 kinase = PIM-1 kinase (Homo sapiens, UniProt P11309); settings: Ren et al. (2011); cited from earlier work
[1] = system: multiple anion (CFTR, calcium-activated chloride channels) and cation (K+, Na+) channels; assay: Short-circuit current in MDCK cells (ion channel off-target effects); type: cell-based, canine; settings: 20 μM inhibitor, forskolin and ATP
Experimental: MDCK cells on black 96-well Costar microplates with clear plastic bottoms were cultured for 24 h at 37° C. and incubated with test compounds (0 to 25 μM) for 24 h. Cell viability was assayed using AlamarBlue (Pierce, Rockford, Ill.) in which the reagent was added to each well, incubated for 30 min, and absorbance measured at 590 nm. For short-circuit current measurement, snapwell inserts containing MDCK cells were mounted on Ussing chambers. Test compounds (20 μM) were incubated with MDCK cells at both apical and basolateral sides for 10 min at 37° C. prior to addition of 20 μM forskolin and then 100 μM ATP. The apical and basolateral chambers contained identical solutions: 120 mM NaCl, 5 mM KCl, 1 mM MgCl2, 1 mM CaCl2, 5 mM HEPES, 25 mM NaHCO3 and 10 mM glucose. Solutions were bubbled with 5% CO2/95% O2 and maintained at 37° C. […]
Compound toxicity was evaluated by compound incubation for 24 h with MDCK cell cultures followed by Alamar blue assay. […] To assess potential ion channel off-target effects, short-circuit current was measured in MDCK cells in response to cAMP (forskolin) and calcium (ATP) agonists (FIG. 5C, right), which depends on the actions of multiple anion (CFTR, calcium-activated chloride channels) and cation (K^+, Na^+) channels.

rat UT-A1 = target: T1, rat UT-A1 (Rattus norvegicus, UniProt Q62668); assay: UT-A1 inhibition, fluorescence plate reader assay in MDCK cells expressing UT-A1, AQP1 and YFP-H148Q/V163S; type: cell-based
T1 construct: expressed in transfected cells; host or cells: MDCK cells stably co-expressing rat UT-A1, human AQP1 and YFP-H148Q/V163S
T1 sequence (Q62668 1-929): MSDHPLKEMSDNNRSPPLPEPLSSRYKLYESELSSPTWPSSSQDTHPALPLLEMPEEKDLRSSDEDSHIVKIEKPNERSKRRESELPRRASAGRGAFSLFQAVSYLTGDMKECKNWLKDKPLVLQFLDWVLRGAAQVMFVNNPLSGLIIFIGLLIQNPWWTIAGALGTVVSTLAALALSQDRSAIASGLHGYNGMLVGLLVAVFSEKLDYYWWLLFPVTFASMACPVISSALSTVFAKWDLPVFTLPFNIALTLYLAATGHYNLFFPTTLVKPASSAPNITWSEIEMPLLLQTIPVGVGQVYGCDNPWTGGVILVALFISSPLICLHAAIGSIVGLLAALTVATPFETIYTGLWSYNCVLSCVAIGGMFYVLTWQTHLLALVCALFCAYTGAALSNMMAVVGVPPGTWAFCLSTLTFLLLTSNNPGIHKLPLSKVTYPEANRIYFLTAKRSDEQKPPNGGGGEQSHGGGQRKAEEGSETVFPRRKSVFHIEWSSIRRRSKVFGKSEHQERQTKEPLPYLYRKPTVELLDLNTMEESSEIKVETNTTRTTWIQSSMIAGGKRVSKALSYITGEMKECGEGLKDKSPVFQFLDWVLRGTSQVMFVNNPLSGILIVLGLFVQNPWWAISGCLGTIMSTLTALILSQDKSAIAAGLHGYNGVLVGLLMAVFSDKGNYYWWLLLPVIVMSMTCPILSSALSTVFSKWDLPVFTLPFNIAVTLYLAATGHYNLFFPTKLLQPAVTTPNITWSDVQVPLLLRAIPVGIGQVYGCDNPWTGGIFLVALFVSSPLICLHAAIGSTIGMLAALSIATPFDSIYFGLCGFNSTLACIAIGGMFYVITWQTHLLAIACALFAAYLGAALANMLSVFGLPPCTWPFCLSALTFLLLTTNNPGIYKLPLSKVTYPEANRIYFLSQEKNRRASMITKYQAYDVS
Experimental: Primary screening was done using a collection of 50,000 chemically diverse, drug-like compounds from ChemDiv (San Diego, Calif.). For analysis of structure-activity relationships, >300 commercially available analogs (ChemDiv and Asinex, Winston-Salem, N.C.) were tested. Cells were plated on black 96-well Costar microplates with clear plastic bottoms (Corning, Corning, N.Y.) at 15,000 cells/well and cultured for 24 h at 37° C. before assay. Microplates containing cultured cells were washed twice with PBS and 150 μL of test compound (25 μM final) in PBS was added. Eighty wells contained test compounds, and the first and last columns of each plate contained negative (dimethyl sulfoxide, DMSO) and positive (0.35 mM phloretin) controls. The assays were done on a plate reader (Tecan Trading AG, Switzerland) equipped with a custom YFP filter set. Each assay consisted of a continuous 15-s read (5 Hz) in which 50 μL of 3.2 M urea in PBS was injected at 1 s (at 130 μL/s) to give a 800 mM final urea gradient.
MDCK cells stably expressing rat UT-A1 (see, e.g., Frohlich et al. (2006) Am J Physiol Cell Physiol. 291, C600-D606), YFP-H148Q/V163 S (see, e.g., Galietta, et al. (2001) FEBS Lett. 499, 220-224) and human AQP1, as described previously (see, e.g., Esteva-Font et al. (2013) Chem Biol. 20, 1235-1244), were grown in Dulbecco's modified Eagle medium (DMEM) containing 10% fetal bovine serum (FBS), penicillin G (100 U/mL), streptomycin (100 μg/mL), zeocin (500 μg/mL), geneticin (600 μg/mL) and Hygromycin (500 μg/mL) at 37° C., 5% CO2. A Cell Clone with bright YFP fluorescence and relatively low AQP1 expression was used for the screen to maximize dynamic range.
In order to identify UT-A inhibitors suitable for testing in rats, a collection of 50,000 synthetic small molecules was screened. As diagrammed in FIG. 1A (top), the fluorescence cell-based screen utilized MDCK cells stably rat expressing UT-A1, water channel AQP1 and the cytoplasmic chloride-sensing fluorescent protein YFP-H148Q/V163S. As described and validated previously (see, e.g., Esteva-Font et al. (2013) Chem Biol. 20, 1235-1244), extracellular addition of urea results in osmotic water efflux and cell shrinking, which increases intracellular chloride concentration and reduces YFP fluorescence. Urea entry results in increasing YFP fluorescence as cells re-swell. Inhibitors of UT-A1 urea transport produce a lesser reduction in fluorescence and slowed recovery.

Chain of PIM-1 kinase (P11309 whole entry): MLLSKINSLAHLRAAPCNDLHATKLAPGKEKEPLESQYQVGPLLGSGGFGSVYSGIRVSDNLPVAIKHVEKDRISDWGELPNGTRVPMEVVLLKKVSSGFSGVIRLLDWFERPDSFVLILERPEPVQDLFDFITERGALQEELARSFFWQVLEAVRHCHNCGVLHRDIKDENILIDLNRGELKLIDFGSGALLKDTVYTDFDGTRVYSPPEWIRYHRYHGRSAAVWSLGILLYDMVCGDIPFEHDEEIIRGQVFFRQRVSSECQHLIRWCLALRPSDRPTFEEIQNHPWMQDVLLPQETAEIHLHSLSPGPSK

IC50 (rat UT-A1) | SMILES | PIM-1 kinase inhibitor potency (PIM-1 kinase) | short-circuit current [1]
~1 µM and 1 µM | CC(=O)Nc1ccc(-c2csc(-c3c[nH]c4ccccc34)n2)cc1 [UTA1inh-E02, N-(4-(2-(1H-indol-3-yl)thiazol-4-yl)phenyl)acetamide] | micromolar potency | Neither inhibitor at 20 μM altered short-circuit current
1 µM | COc1ccc(C)cc1S(=O)(=O)Nc1ccc(Cl)c(N2CCCS2(=O)=O)c1 [UTA1inh-F11, N-[4-Chloro-3-(1,1-dioxido-1,2-thiazolidin-2-yl)phenyl]-2-methoxy-5-methylbenzene-sulfonamide] | – | Neither inhibitor at 20 μM altered short-circuit current
